Source: patent US20230330254A1 (Regeneron Pharmaceuticals, Inc., priority 2022, published 2023)
Where two headings read alike, the source gives them in different places.

What was measured:
[1] = target: T1, human gastric inhibitory polypeptide receptor (GIPR) (Homo sapiens, UniProt P48546); assay: CRE-luciferase reporter assay, HEK293/Myc-hGIPR/Cre-Luc (Example 9); assay type: cell-based; parameters: Myc; expressed in transfected cells; details: Table 5C
T1 sequence (P48546 22-466): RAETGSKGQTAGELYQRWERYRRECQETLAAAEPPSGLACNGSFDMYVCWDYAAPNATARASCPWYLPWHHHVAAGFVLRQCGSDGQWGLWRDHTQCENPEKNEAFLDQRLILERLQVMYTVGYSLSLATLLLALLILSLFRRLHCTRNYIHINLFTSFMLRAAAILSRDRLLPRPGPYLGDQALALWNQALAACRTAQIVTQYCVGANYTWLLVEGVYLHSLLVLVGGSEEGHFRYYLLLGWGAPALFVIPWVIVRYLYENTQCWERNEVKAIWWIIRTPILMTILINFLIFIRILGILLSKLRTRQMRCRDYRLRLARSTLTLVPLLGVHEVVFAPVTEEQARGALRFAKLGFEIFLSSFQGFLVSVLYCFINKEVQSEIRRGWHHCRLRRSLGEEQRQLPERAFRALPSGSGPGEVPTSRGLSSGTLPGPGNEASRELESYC
Experimental: To test the activity of GLP1R agonist payloads and GLP1R agonist linker-payloads (LPs) in vitro, a cell-based cAMP responsive luciferase reporter assay was developed.
Cells were incubated overnight at 37° C. in 5% CO2. […] Plates were incubated for 5.5 h at 37° C. in 5% CO2. For end-point measurement, 100 μL/well of One-Glo reagent (Promega, #E6051) was added and plates were kept at room temperature for 5-10 minutes. Luciferase activity was measured on Envision Multilabel Plate Reader (Perkin Elmer) in Luminescent mode. The relative light units (RLU) values were obtained and the results were analyzed using nonlinear regression with GraphPad Prism software (GraphPad).

[2] = Plasma stability of payloads and linker-payloads, monkey plasma; assay type: in vitro ADME; details: pooled plasma
Experimental: The plasma stability of payloads and linker payloads of the disclosure were measured. For the assay, pooled frozen plasma (human, mouse or monkey) was thawed in cold water or a 37° C. water bath prior to experiment. Plasma was centrifuged at 4000 rpm for 5 min if any clots were observed, they were subsequently removed. If required, the pH was adjusted to 7.4±0.1. For the preparation of compounds and positive controls, a 1 mM intermediate solution was prepared by diluting 10 μL of their stock solution with 90 μL DMSO; a 1 mM intermediate solution of the positive control (Propantheline) was prepared by diluting 10 μL of its stock solution with 90 μL ultrapure water. Subsequently, 100 μM dosing solution for each compound was prepared by diluting 20 μL of the intermediate solution (1 mM) with 180 μL 45% MeOH/H2O. 98 μL of plasma was spiked with 2 μL of dosing solution (100 μM) to achieve the final concentration of 2 μM in duplicate. Samples were then incubated at 37° C. in a water bath. […] At each time point, 400 μL of stop solution (200 ng/mL tolbutamide plus 200 ng/mL labetalol in 50% ACN/MeOH) was added to precipitate protein and mixed thoroughly. Sample plates were then centrifuged at 4,000 rpm for 10 min. An aliquot of supernatant (50 μL) was transferred from each well and mixed with 100 μL ultrapure water. The samples were then shaken at 800 rpm for approximately 10 min before submitting for LC-MS/MS analysis.

human GLP1R = human GLP1R (Homo sapiens, UniProt P43220); assay: b-arrestin 2 recruitment assay, PathHunter CHO/b-arrestin 2/hGLP1R cells; assay type: cell-based; details: read-out: CHO/b-arrestin 2/hGLP1R Emax (% GLP-1)
Chain of human GLP1R (P43220 24-463): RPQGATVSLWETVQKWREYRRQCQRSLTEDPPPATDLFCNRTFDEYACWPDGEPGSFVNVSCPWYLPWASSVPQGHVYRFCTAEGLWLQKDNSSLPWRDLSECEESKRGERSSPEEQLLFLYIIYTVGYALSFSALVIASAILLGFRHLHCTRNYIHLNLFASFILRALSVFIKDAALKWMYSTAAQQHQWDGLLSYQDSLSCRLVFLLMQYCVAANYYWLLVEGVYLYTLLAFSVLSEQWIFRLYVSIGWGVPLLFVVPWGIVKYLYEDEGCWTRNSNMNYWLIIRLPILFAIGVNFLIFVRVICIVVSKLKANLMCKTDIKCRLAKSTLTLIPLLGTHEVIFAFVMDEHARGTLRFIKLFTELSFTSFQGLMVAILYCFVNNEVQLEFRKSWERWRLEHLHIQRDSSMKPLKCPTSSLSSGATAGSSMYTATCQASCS
Experimental: The b-arrestin 2 recruitment assay was performed following manufacter's instructions (Eurofins DiscoverX, #93-0300E2CP0M), with minor modifications. […] Serial dilutions of free payload and LP were performed in 100% DMSO, followed by 1:100 dilution in assay media. Test articles were added to cells (1:5 dilution) with the last well in each serial dilution series serving as a blank control containing only assay media for antibodies and ATLs or assay media with 0.2% DMSO for payload and LP. After a 90-minute incubation at 37° C., PathHunter Detection Reagent (Eurofins DiscoverX, #93-0300E2CP0M) was added to the wells followed by a 1-hour incubation at room temperature. RLUs were measured on EnVision Plate Reader (Perkin Elmer).
EC50 values for luminescence assays were determined using a four-parameter logistic equation over a 12-point dose response curve (GraphPad Prism).

[3] = target: T1, human gastric inhibitory polypeptide receptor (GIPR); assay: Luciferase reporter assay, HEK293/CRE-Luc/hGIPR (Example 17); assay type: cell-based; parameters: expressed in transfected cells; host or cells: HEK293/CRE-Luc; details: Table 28; CRE-dependent luciferase reporter activity; read-out: HEK293/CRE-Luc/hGlPR EC50
From the text: To test the activity of GLP1R agonist payloads, GLP1R agonist linker-payloads (LPs), and anti-GLP1R antibody tethered drug conjugates (ATDCs) of the invention, a cell-based cAMP responsive luciferase reporter assay was developed. To generate the assay cell line, the firefly luciferase gene was placed under the control of a cAMP response element (CRE) located upstream of a minimal promoter and transfected into HEK293 cells and referred to herein as HEK293/CRE-Luc cells.
Three-fold serial dilutions of free payloads or LPs were prepared in 100% DMSO, transferred to fresh assay media, and added to the cells at a final constant DMSO concentration of 0.2%. The last well in the plate served as a blank control containing only the assay media and 0.2% DMSO (untreated well) and was plotted as a continuation of the 3-fold serial dilution. Four to six hours later, luciferase activity was determined after the addition of One-Glo™ reagent (Promega, Cat #E6130) to each well. Relative light units (RLUs) were measured on an Envision luminometer (PerkinElmer) and EC50 values were determined using a four-parameter logistic equation over a 12-point dose response curve (GraphPad Prism). The signal to noise (S/N) was determined by taking the ratio of the highest RLU on the dose response curve to the RLU in the untreated wells. […]

SMILES	GIPR EC50 (nM) [1]	half-life at 2 µM ([2]; pH 7.4, Monkey, assay time 3 days, Table 5B, read-out: plasma stability T½)	half-life at 2 µM ([2]; pH 7.4, Table 5A, monkey plasma, tested time C (3 days), read-out: plasma stability T½ (hr), monkey)	half-life at 2 µM ([2]; pH 7.4, Table 5C, read-out: Plasma Stability Monkey T1/2)	Emax (human GLP1R)	EC50 [3]
CCc1cc(OCCCCn2cc(COCCOCCOCCOCCOCCOCCOCCOCCN)nn2)ccc1-c1ccc(C[C@H](NC(=O)[C@H](CC(=O)O)NC(=O)[C@H](CO)NC(=O)[C@@H](NC(=O)C(C)(Cc2ccccc2F)NC(=O)[C@@H](NC(=O)CNC(=O)[C@H](Cc2nn[nH]n2)NC(=O)C(C)(C)C(=O)NCCc2cnc[nH]2)[C@@H](C)O)[C@@H](C)O)C(=O)N[C@@H](CCCc2cc(C)cc(C)c2)C(N)=O)cc1 (stereo partly drawn) [LP11, NH2-PEG8-triazole-P8]	Completely inactive	> 49.4 h	> 49.4 h	> 48 h		
CCc1cc(OCCCCn2cc(COCCOCCOCCOCCOCCOCCOCCOCCN)nn2)ccc1-c1ccc(C[C@H](NC(=O)[C@H](CC(=O)O)NC(=O)[C@H](CO)NC(=O)[C@@H](NC(=O)[C@](C)(Cc2ccccc2F)NC(=O)[C@@H](NC(=O)CNC(=O)[C@H](Cc2nn[nH]n2)NC(=O)C(C)(C)C(=O)NCCc2cnc[nH]2)[C@@H](C)O)[C@@H](C)O)C(=O)N[C@@H](CCCc2cc(C)cc(C)c2)C(N)=O)cc1 [M3190]					108%	> 200 nM
